# Assays:
# Assay in all cases: microbe, parasite or virus in culture
# E. coli = system: E. coli
# In short: (§1)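 MICs were scored by eye after 18-20 h static incubation at 37 °C, with bacteria at 5 × 10^5 CFU mL^−1 in MHB. Peptides were serially diluted 2-fold over 12 points, top 128 or 64 μg mL^−1. CAMHB (CLSI) and 1% agarose-MHB variants were also run, at least six replicates.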
# K. pneumoniae = system: K. pneumoniae
# In short: as §1
# P. aeruginosa = system: P. aeruginosa
# In short: as §1
smiles,measurement,setting,value
NC[C@H]1O[C@H](O[C@H]2[C@H](O)[C@@H](O[C@H]3O[C@H](CO)[C@@H](O)[C@H](N)[C@H]3O)[C@H](N)C[C@@H]2N)[C@H](N)C[C@@H]1O [TOB],"MIC, broth microdilution",E. coli; E. coli AUD172 parent strain not exposed to drug,8 µg/mL
same,"MIC, broth microdilution","E. coli; E. coli AUD172 spontaneous mutant, AA139 selection 4X, plate 2, colony 2, drug-free passage 1",8 µg/mL
same,"MIC, broth microdilution","E. coli; E. coli AUD172 spontaneous mutant, AA139 selection 4X, plate 2, colony 2, drug-free passage 5",16 µg/mL
same,"MIC, broth microdilution",K. pneumoniae; K. pneumoniae 3010 parent strain not exposed to drug,0.5 µg/mL
same,"MIC, broth microdilution","K. pneumoniae; K. pneumoniae 3010 spontaneous mutant, AA139 selection 4X, plate 1, colony 1, drug-free passage 1",1 µg/mL
same,"MIC, broth microdilution","K. pneumoniae; K. pneumoniae 3010 spontaneous mutant, AA139 selection 4X, plate 1, colony 1, drug-free passage 5",0.25 µg/mL
same,"MIC, broth microdilution","K. pneumoniae; K. pneumoniae 3010 spontaneous mutant, AA139 selection 8X, plate 1, colony 1, drug-free passage 1",0.5 µg/mL
same,"MIC, broth microdilution","K. pneumoniae; K. pneumoniae 3010 spontaneous mutant, AA139 selection 8X, plate 1, colony 1, drug-free passage 5",0.25 µg/mL
same,"MIC, broth microdilution",K. pneumoniae; K. pneumoniae ST258 parent strain not exposed to drug,16 µg/mL
same,"MIC, broth microdilution","K. pneumoniae; K. pneumoniae ST258 spontaneous mutant, AA139 selection 4X, plate 1, colony 1, drug-free passage 1","16, 16 µg/mL"
same,"MIC, broth microdilution","K. pneumoniae; K. pneumoniae ST258 spontaneous mutant, AA139 selection 4X, plate 1, colony 1, drug-free passage 5","16, 16 µg/mL"
same,"MIC, broth microdilution",P. aeruginosa; P. aeruginosa ATCC 27853 parent strain not exposed to drug,0.5 µg/mL
same,"MIC, broth microdilution","P. aeruginosa; P. aeruginosa ATCC 27853 spontaneous mutant, AA139 selection 4X, plate 1, colony 1, drug-free passage 1",1 µg/mL
same,"MIC, broth microdilution","P. aeruginosa; P. aeruginosa ATCC 27853 spontaneous mutant, AA139 selection 4X, plate 1, colony 1, drug-free passage 5",0.5 µg/mL
same,"MIC, broth microdilution","P. aeruginosa; P. aeruginosa ATCC 27853 spontaneous mutant, AA139 selection 4X, plate 1, colony 2, drug-free passage 1","0.5, 0.5 µg/mL"
same,"MIC, broth microdilution","P. aeruginosa; P. aeruginosa ATCC 27853 spontaneous mutant, AA139 selection 4X, plate 1, colony 2, drug-free passage 5","0.5, 0.5 µg/mL"
same,"MIC, broth microdilution","P. aeruginosa; P. aeruginosa ATCC 27853 spontaneous mutant, AA139 selection 4X, plate 1, colony 3, drug-free passage 1","0.5, 0.5 µg/mL"
same,"MIC, broth microdilution","P. aeruginosa; P. aeruginosa ATCC 27853 spontaneous mutant, AA139 selection 4X, plate 1, colony 3, drug-free passage 5","0.5, 0.5 µg/mL"
same,"MIC, broth microdilution","P. aeruginosa; P. aeruginosa ATCC 27853 spontaneous mutant, AA139 selection 4X, plate 1, colony 4, drug-free passage 1","0.5, 0.5 µg/mL"
same,"MIC, broth microdilution","P. aeruginosa; P. aeruginosa ATCC 27853 spontaneous mutant, AA139 selection 4X, plate 1, colony 4, drug-free passage 5","0.5, 0.5 µg/mL"
same,"MIC, broth microdilution","P. aeruginosa; P. aeruginosa ATCC 27853 spontaneous mutant, AA139 selection 4X, plate 1, colony 5, drug-free passage 1",1 µg/mL
same,"MIC, broth microdilution","P. aeruginosa; P. aeruginosa ATCC 27853 spontaneous mutant, AA139 selection 4X, plate 1, colony 5, drug-free passage 5",0.5 µg/mL
same,"MIC, broth microdilution","P. aeruginosa; P. aeruginosa ATCC 27853 spontaneous mutant, AA139 selection 4X, plate 1, colony 6, drug-free passage 1",1 µg/mL
same,"MIC, broth microdilution","P. aeruginosa; P. aeruginosa ATCC 27853 spontaneous mutant, AA139 selection 4X, plate 1, colony 6, drug-free passage 5",0.5 µg/mL
same,"MIC, broth microdilution","P. aeruginosa; P. aeruginosa ATCC 27853 spontaneous mutant, AA139 selection 4X, plate 2, colony 1, drug-free passage 1","0.5, 0.5 µg/mL"
same,"MIC, broth microdilution","P. aeruginosa; P. aeruginosa ATCC 27853 spontaneous mutant, AA139 selection 4X, plate 2, colony 1, drug-free passage 5","0.5, 0.5 µg/mL"
same,"MIC, broth microdilution","P. aeruginosa; P. aeruginosa ATCC 27853 spontaneous mutant, AA139 selection 4X, plate 2, colony 2, drug-free passage 1","0.5, 0.5 µg/mL"
same,"MIC, broth microdilution","P. aeruginosa; P. aeruginosa ATCC 27853 spontaneous mutant, AA139 selection 4X, plate 2, colony 2, drug-free passage 5","0.5, 0.5 µg/mL"
same,"MIC, broth microdilution","P. aeruginosa; P. aeruginosa ATCC 27853 spontaneous mutant, AA139 selection 4X, plate 2, colony 3, drug-free passage 1",1 µg/mL
same,"MIC, broth microdilution","P. aeruginosa; P. aeruginosa ATCC 27853 spontaneous mutant, AA139 selection 4X, plate 2, colony 3, drug-free passage 5",0.5 µg/mL
same,"MIC, broth microdilution","P. aeruginosa; P. aeruginosa ATCC 27853 spontaneous mutant, AA139 selection 4X, plate 2, colony 4, drug-free passage 1",1 µg/mL
same,"MIC, broth microdilution","P. aeruginosa; P. aeruginosa ATCC 27853 spontaneous mutant, AA139 selection 4X, plate 2, colony 4, drug-free passage 5",0.5 µg/mL
same,"MIC, broth microdilution","P. aeruginosa; P. aeruginosa ATCC 27853 spontaneous mutant, AA139 selection 8X, plate 1, colony 1, drug-free passage 1",1 µg/mL
same,"MIC, broth microdilution","P. aeruginosa; P. aeruginosa ATCC 27853 spontaneous mutant, AA139 selection 8X, plate 1, colony 1, drug-free passage 5",0.5 µg/mL
same,"MIC, broth microdilution","P. aeruginosa; P. aeruginosa ATCC 27853 spontaneous mutant, AA139 selection 8X, plate 1, colony 2, drug-free passage 1",1 µg/mL
same,"MIC, broth microdilution","P. aeruginosa; P. aeruginosa ATCC 27853 spontaneous mutant, AA139 selection 8X, plate 1, colony 2, drug-free passage 5",0.5 µg/mL
same,"MIC, broth microdilution","P. aeruginosa; P. aeruginosa ATCC 27853 spontaneous mutant, AA139 selection 8X, plate 1, colony 3, drug-free passage 1",1 µg/mL
same,"MIC, broth microdilution","P. aeruginosa; P. aeruginosa ATCC 27853 spontaneous mutant, AA139 selection 8X, plate 1, colony 3, drug-free passage 5",0.5 µg/mL
same,"MIC, broth microdilution","P. aeruginosa; P. aeruginosa ATCC 27853 spontaneous mutant, AA139 selection 8X, plate 1, colony 4, drug-free passage 1",1 µg/mL
same,"MIC, broth microdilution","P. aeruginosa; P. aeruginosa ATCC 27853 spontaneous mutant, AA139 selection 8X, plate 1, colony 4, drug-free passage 5",0.5 µg/mL
same,"MIC, broth microdilution","P. aeruginosa; P. aeruginosa ATCC 27853 spontaneous mutant, AA139 selection 8X, plate 1, colony 5, drug-free passage 1","0.5, 0.5 µg/mL"

# — paper PMC7311426, “An amphipathic peptide with antibiotic activity against multidrug-resistant Gram-negative bacteria” (Nature Communications, 2020)
